# Results from the supplement of paper PMC10307832.
# Experiments:
# Test in all cases: relative viability (nuclei count vs DMSO), 5 days (fraction); higher = more cells survive
# Midostaurin + Linsitinib = compound: CO[C@@H]1[C@H](N(C)C(=O)c2ccccc2)C[C@H]2O[C@]1(C)n1c3ccccc3c3c4c(c5c6ccccc6n2c5c31)C(=O)NC4 [Midostaurin] + C[C@]1(O)C[C@@H](c2nc(-c3ccc4ccc(-c5ccccc5)nc4c3)c3c(N)nccn32)C1 [Linsitinib] (partner 1 µM)
# Summary of the method: (§1)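 Medians of duplicate plates are given as relative viability. That measure is the nuclei count in treated wells divided by the count in vehicle wells. Counts were taken on 4× images of lung cancer cell lines in 1536-well plates, 5 days after pin-tool dosing the day after seeding with one drug alone or a fixed anchor-drug dose plus five library-drug doses (not always all listed) in √10 steps.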
# [1] = compound: COc1cc(-c2nn([C@H]3CC[C@H](N4CCN(C(C)=O)CC4)CC3)c3ncnc(N)c23)ccc1NC(=O)c1cc2ccccc2n1C + CC(=O)c1c(C)c2cnc(Nc3ccc(N4CCNCC4)cn3)nc2n(C2CCCC2)c1=O [Palbociclib] (partner 0.5 µM)
# Summary of the method: as §1
# [2] = compound: COc1cc(-c2nn([C@H]3CC[C@H](N4CCN(C(C)=O)CC4)CC3)c3ncnc(N)c23)ccc1NC(=O)c1cc2ccccc2n1C + Nc1ncn([C@H]2C[C@H](O)[C@@H](CO)O2)c(=O)n1 [Decitabine] (partner 2 µM)
# Summary of the method: as §1
# [3] = compound: COc1cc(-c2nn([C@H]3CC[C@H](N4CCN(C(C)=O)CC4)CC3)c3ncnc(N)c23)ccc1NC(=O)c1cc2ccccc2n1C + CC1(C)CCC(c2ccc(Cl)cc2)=C(CN2CCN(c3ccc(C(=O)NS(=O)(=O)c4ccc(N[C@H](CCN5CCOCC5)CSc5ccccc5)c(S(=O)(=O)C(F)(F)F)c4)cc3)CC2)C1 [Navitoclax] (partner 0.5 µM)
# Summary of the method: as §1
# Midostaurin + Crizotinib = compound: CO[C@@H]1[C@H](N(C)C(=O)c2ccccc2)C[C@H]2O[C@]1(C)n1c3ccccc3c3c4c(c5c6ccccc6n2c5c31)C(=O)NC4 [Midostaurin] + C[C@@H](Oc1cc(-c2cnn(C3CCNCC3)c2)cnc1N)c1c(Cl)ccc(F)c1Cl [Crizotinib] (partner 1 µM)
# Summary of the method: as §1
Cell Line,relative viability (Midostaurin + Linsitinib; first compound 0.01 µM),relative viability (Midostaurin + Linsitinib; first compound 0.03162 µM),relative viability (Midostaurin + Linsitinib; first compound 0.1 µM),relative viability (Midostaurin + Linsitinib; first compound 0.3162 µM),relative viability ([1]; first compound 0.0128 µM),relative viability ([1]; first compound 0.04048 µM),relative viability ([1]; first compound 0.128 µM),relative viability ([1]; first compound 1.28 µM),relative viability ([2]; first compound 0.0128 µM),relative viability ([2]; first compound 0.04048 µM),relative viability ([2]; first compound 0.128 µM),relative viability ([2]; first compound 1.28 µM),relative viability ([3]; first compound 0.0128 µM),relative viability ([3]; first compound 0.04048 µM),relative viability ([3]; first compound 0.128 µM),relative viability ([3]; first compound 1.28 µM),relative viability (Midostaurin + Crizotinib; first compound 0.01 µM),relative viability (Midostaurin + Crizotinib; first compound 0.03162 µM),relative viability (Midostaurin + Crizotinib; first compound 0.1 µM),relative viability (Midostaurin + Crizotinib; first compound 0.3162 µM)
HCC-827,0.928,0.883,0.852,1.06,0.492,0.455,0.484,0.218,0.336,0.318,0.357,0.29,1.01,1.06,1.1,1.04,0.856,0.844,0.858,0.905
HOP-62,1.1,0.911,0.938,0.995,0.503,0.468,0.411,0.432,0.241,0.191,0.207,0.283,1.06,1.18,0.825,1.1,0.846,0.624,0.988,1.15
LC-2-ad,0.851,0.768,0.849,0.631,0.543,0.508,0.502,0.511,0.818,0.778,0.723,0.854,0.509,0.429,0.473,0.389,0.469,0.428,0.485,0.483
LCLC-97TM1,0.193,,0.145,0.184,0.22,0.194,0.241,0.191,0.295,0.224,0.257,0.235,0.464,0.388,0.385,0.389,0.418,,0.205,0.304
LK-2,0.462,0.62,0.559,0.816,0.698,0.858,0.834,0.518,0.339,0.253,0.288,0.248,1.04,0.861,0.621,0.685,0.243,0.235,0.233,0.17
LOU-NH91,1.05,0.885,0.958,0.953,0.536,0.533,0.529,0.454,0.792,0.898,0.842,0.804,0.658,0.661,0.768,0.638,0.753,0.748,0.758,0.721
LU99A,0.5,0.503,0.408,0.407,0.419,0.435,0.389,0.377,0.808,0.601,0.949,0.994,0.854,0.842,0.773,0.815,0.603,0.634,0.541,0.533
